Columns and labels:
Type in all cases: in vivo
Setaria faberi (SETFA) = assay: Post-emergence efficacy, Setaria faberi; settings: 15 DAA
Excerpt: (§1) When active ingredients are combined, the activity to be expected (E) for any given active ingredient combination obeys the so-called Colby Formula and can be calculated as follows (Colby, S. R., Calculating synergistic and antagonistic responses of herbicide combination, Weeds, Vol. 15, pages 20-22; 1967): • ppm=milligrams of active ingredient (a.i.) per litre • X=% action by first active ingredient using p ppm of the active ingredient • Y=% action by second active ingredient using q ppm of the active ingredient.
(§2) According to Colby, the expected action of active ingredients A+B using p+q ppm of active ingredient is represented by the following formula: […]
(§3) If the action actually observed (O) is greater than the expected action E then the action of the combination is super-additive, i.e. there is a synergistic effect. In mathematical terms, synergism corresponds to a positive value for the difference of (O−E). In the case of purely complementary addition of activities (expected activity), said difference (O−E) is zero. A negative value of said difference (O−E) signals a loss of activity compared to the expected activity.
(§4) The efficacy of various compositions of the present invention were tested against plants including the following species: Amaranthus retroflexus (AMARE) Cenchrus echinatus (CCHEC), Echinochloa crus-gali (ECHCG), Eleusine indica (ELEIN), Setaria faberi (SETFA) Sorghum halapense (SORHA) and Digitaria insularis (TRCIN). The compositions are applied post-emergence, and the tests evaluated at certain days-after-application (DAA) as indicated. The tests were evaluated (100=total damage to plant; 0=no damage to plant), and the results are shown below in tables B1 to B13.

[1] = tested on: Echinochloa crus-gali (ECHCG); assay: Post-emergence efficacy, Echinochloa crus-gali
Excerpt: as §1, §2, §3, §4

[2] = tested on: Cenchrus echinatus (CCHEC); assay: Post-emergence efficacy, Cenchrus echinatus; settings: 14 DAA
Excerpt: as §1, §2, §3, §4

[3] = tested on: Digitaria insularis (TRCIN); assay: Post-emergence efficacy, Digitaria insularis
Excerpt: as §1, §2, §3, §4

[4] = tested on: Sorghum halapense (SORHA); assay: Post-emergence efficacy, Sorghum halapense; settings: 15 DAA
Excerpt: as §1, §2, §3, §4

[5] = tested on: Amaranthus retroflexus (AMARE); assay: Post-emergence efficacy, Amaranthus retroflexus; settings: 13 DAA
Excerpt: as §1, §2
If the action actually observed (O) is greater than the expected action E then the action of the combination is super-additive, i.e. there is a synergistic effect. […]
as §4

Eleusine indica (ELEIN) = assay: Post-emergence efficacy, Eleusine indica; settings: 15 DAA
Excerpt: as §1, §2, §3, §4

O=C(O)CC[n+]1ccc(-c2cccnn2)cn1.[Cl-] [Compound B4c.27]
Observed (100=total damage to plant; 0=no damage) (Setaria faberi (SETFA); rate 37.5 g/ha): 37

CCOC(=O)C1(C)CC(c2cc(-n3c(=O)cc(C(F)(F)F)n(C)c3=O)c(F)cc2Cl)=NO1 (stereo not drawn) [Compound B3l, 3-(2-chloro-4-fluoro-5-(3-methyl-2,6-dioxo-4-trifluoromethyl-3,6-dihydropyrimidin-1(2H)-yl)phenyl)-5-methyl-4,5-dihydroisoxazole-5-carboxylic acid ethyl ester, reference compound]
Observed (100=total damage to plant; 0=no damage) ([1]; Table B12, POST, 13 DAA, rate 0.94 g/ha (B3l)): 33
Observed (100=total damage to plant; 0=no damage) ([1]; Table B12, POST, 13 DAA, rate 3.75 g/ha): 73

COC(=O)CCNC(=O)C(C)Sc1cc(-n2c(=O)cc(C(F)(F)F)n(C)c2=O)c(F)cc1Cl (stereo not drawn) [Compound B3j, tiafenacil, reference compound]
Observed (100=total damage to plant; 0=no damage) ([1]; Table B10, POST, 15 DAA, rate 8 g/ha): 40
Observed (100=total damage to plant; 0=no damage) ([1]; Table B10, POST, 15 DAA, rate 16 g/ha): 55

O=C(O)CNCP(=O)(O)O [Compound B2c, glyphosate, reference compound]
Observed (100=total damage to plant; 0=no damage) ([2]; rate 125 g/ha): 1

c1cc[n+]2c(c1)-c1cccc[n+]1CC2 [Compound B4b1, diquat dibromide, reference compound]
Observed (100=total damage to plant; 0=no damage) ([1]; Table B13, POST, 15 DAA, rate 60 g/ha): 43

C#CCN1C(=O)C(F)(F)Oc2cc(F)c(-n3c(=O)n(C)c(=S)n(C)c3=O)cc21 [Compound B3k, trifludimoxazin, reference compound]
Observed (100=total damage to plant; 0=no damage) ([1]; Table B11, POST, 20 DAA, rate 4 g/ha): 38
Observed (100=total damage to plant; 0=no damage) ([1]; Table B11, POST, 20 DAA, rate 30 g/ha): 31

CS(=O)(=O)NC(=O)c1cc(Oc2ccc(C(F)(F)F)cc2Cl)ccc1[N+](=O)[O-] [Compound B3e, fomesafen, reference compound]
Observed (100=total damage to plant; 0=no damage) ([3]; Table B8, POST, 14 DAA, rate 7.5 g/ha): 15
Observed (100=total damage to plant; 0=no damage) ([3]; Table B8, POST, 14 DAA, rate 15 g/ha): 20
Observed (100=total damage to plant; 0=no damage) ([3]; Table B8, POST, 14 DAA, rate 30 g/ha): 35

Cc1nn(-c2cc(NS(C)(=O)=O)c(Cl)cc2Cl)c(=O)n1C(F)F [Compound B3i, sulfentrazone, reference compound]
Observed (100=total damage to plant; 0=no damage) ([4]; rate 60 g/ha): 13

CCOC(=O)C(Cl)Cc1cc(-n2nc(C)n(C(F)F)c2=O)c(F)cc1Cl (stereo not drawn) [Compound B3b, carfentrazone-ethyl, reference compound]
Observed (100=total damage to plant; 0=no damage) ([5]; rate 3.75 g/ha): 75

CC#Cc1ccc(C2=C(OC(=O)OC)C3CCC(C3)C2=O)c(OC)c1 (stereo not drawn) [Ic]
Observed (100=total damage to plant; 0=no damage) ([3]; POST, 14 DAA, rate 100 g/ha): 5
Observed (100=total damage to plant; 0=no damage) ([3]; POST, 16 DAA, rate 3.125 g/ha): 15
Observed (100=total damage to plant; 0=no damage) ([3]; Table B8, POST, 14 DAA, rate 0.47 g/ha): 0
Observed (100=total damage to plant; 0=no damage) ([3]; Table B8, POST, 14 DAA, rate 0.94 g/ha): 0
Observed (100=total damage to plant; 0=no damage) ([3]; Table B8, POST, 14 DAA, rate 1.88 g/ha): 11
Observed (100=total damage to plant; 0=no damage) ([2]; rate 3 g/ha): 50
Observed (100=total damage to plant; 0=no damage) ([2]; rate 6 g/ha): 72
Observed (100=total damage to plant; 0=no damage) ([2]; rate 12.5 g/ha): 79
Observed (100=total damage to plant; 0=no damage) ([2]; rate 25 g/ha): 79
Observed (100=total damage to plant; 0=no damage) (Setaria faberi (SETFA); rate 3 g/ha): 10
Observed (100=total damage to plant; 0=no damage) (Setaria faberi (SETFA); rate 6 g/ha): 29
Observed (100=total damage to plant; 0=no damage) ([1]; Table B7, POST, 20 DAA, rate 3.125 g/ha): 14
Observed (100=total damage to plant; 0=no damage) ([1]; Table B7, POST, 20 DAA, rate 25 g/ha): 87
Observed (100=total damage to plant; 0=no damage) ([1]; Table B10, POST, 15 DAA, rate 3.125 g/ha): 45
Observed (100=total damage to plant; 0=no damage) ([1]; Table B10, POST, 15 DAA, rate 6.25 g/ha): 50
Observed (100=total damage to plant; 0=no damage) ([1]; Table B10, POST, 15 DAA, rate 12.5 g/ha): 60
Observed (100=total damage to plant; 0=no damage) ([1]; Table B11, POST, 20 DAA, rate 3.125 g/ha): 14
Observed (100=total damage to plant; 0=no damage) ([1]; Table B12, POST, 13 DAA, rate 0.94 g/ha (Ic)): 3
Observed (100=total damage to plant; 0=no damage) ([1]; Table B12, POST, 13 DAA, rate 1.88 g/ha): 24
Observed (100=total damage to plant; 0=no damage) ([1]; Table B12, POST, 13 DAA, rate 7.5 g/ha): 54
Observed (100=total damage to plant; 0=no damage) ([1]; Table B13, POST, 15 DAA, rate 3.125 g/ha): 45
Observed (100=total damage to plant; 0=no damage) ([1]; Table B13, POST, 15 DAA, rate 6.25 g/ha): 50
Observed (100=total damage to plant; 0=no damage) ([1]; Table B13, POST, 15 DAA, rate 12.5 g/ha): 60
Observed (100=total damage to plant; 0=no damage) (Eleusine indica (ELEIN); rate 12.5 g/ha): 72
Observed (100=total damage to plant; 0=no damage) (Eleusine indica (ELEIN); rate 25 g/ha (Ic)): 79
Observed (100=total damage to plant; 0=no damage) ([5]; rate 7.5 g/ha): 4
Observed (100=total damage to plant; 0=no damage) ([4]; rate 3.125 g/ha): 28
Observed (100=total damage to plant; 0=no damage) ([4]; rate 6.25 g/ha): 45
Observed (100=total damage to plant; 0=no damage) ([4]; rate 12.5 g/ha): 75

CCOC(=O)COc1ncccc1Oc1cc(-n2c(=O)cc(C(F)(F)F)n(C)c2=O)c(F)cc1Cl [Compound B3c, epyrifenacil, reference compound]
Observed (100=total damage to plant; 0=no damage) ([3]; POST, 16 DAA, rate 1 g/ha): 33
Observed (100=total damage to plant; 0=no damage) (Eleusine indica (ELEIN); rate 25 g/ha (B3c)): 16

CP(=O)(O)CC[C@H](N)C(=O)O [Compound B1c, L-glufosinate/glufosinate-P, reference compound]
Observed (100=total damage to plant; 0=no damage) ([3]; POST, 14 DAA, rate 600 g/ha): 60

C#CCN1C(=O)COc2cc(F)c(N3C(=O)C4=C(CCCC4)C3=O)cc21 [Compound B3d, flumioxazin, reference compound]
Observed (100=total damage to plant; 0=no damage) ([1]; Table B7, POST, 20 DAA, rate 4 g/ha): 8
Observed (100=total damage to plant; 0=no damage) ([1]; Table B7, POST, 20 DAA, rate 15 g/ha): 49
